From patent US12649722B2, “Herbicidal cinnoline derivatives” (SYNGENTA CROP PROTECTION AG, priority 2020, dated 2026) come the findings set out here.

Common to all, as to assay type: in vivo
The test system of experiment [1] is Amaranthus retoflexus (AMARE). Briefly: Pre-emergence Test, AMARE. To be noted: 1000 g/ha, evaluated after 13 days.
Experiment [2] deals with Ipornoea hederacea (IPOHE). In words: Pre-emergence Test, IPOHE. To be noted: 1000 g/ha, evaluated after 13 days.
For experiment [3], the system named is Echinochloa crus-galli (ECHCG). In words: Pre-emergence Test, ECHCG. The settings on record: 1000 g/ha, evaluated after 13 days.
For experiment [4], the system named is Setaria faberi (SETFA). In words: Pre-emergence Test, SETFA. To be noted: 1000 g/ha, evaluated after 13 days.
Experiment [5] concerns ABUTH. Briefly: Pre-emergence Test, ABUTH. The settings on record: 1000 g/ha, evaluated after 13 days.
Experiment [6] has as its system Amaranthus retoflexus (AMARE). Briefly: Post-emergence Test, AMARE. The settings on record: sprayed after 8 days cultivation, 1000 g/ha, evaluated after 13 days. How it is done: (§1) Seeds of a variety of test species are sown in standard soil in pots (Amaranthus retoflexus (AMARE), Solarium nigrum (SOLNI), Setaria faberi (SETFA), Lolium perenne (LOLPE), Echinochloa crus-galli (ECHCG), Ipornoea hederacea (IPOHE)). After 8 days cultivation under controlled conditions in a glasshouse (at 24° C./16° C., day/night; 14 hours light; 65% humidity), the plants are sprayed with an aqueous spray solution derived from the formulation of the technical active ingredient in acetone/water (50:50) solution containing 0.5% Tween 20 (polyoxyethylene sorbitan monolaurate, CAS RN 9005-64-5). Compounds are applied at 1000 g/ha unless otherwise stated. The test plants are then grown in a glasshouse under controlled conditions in a glasshouse (at 24° C./16° C., day/night; 14 hours light; 65% humidity) and watered twice daily. After 13 days the test is evaluated for the percentage damage caused to the plant. The biological activities are shown in the following table on a five-point scale (5=81-100%; 4=61-80%; 3=41-60%; 2=21-40%; 1=10-20%; 0=0%; −=not tested).

In experiment [7] the test system is Ipornoea hederacea (IPOHE). In words: Post-emergence Test, IPOHE. To be noted: sprayed after 8 days cultivation, 1000 g/ha, evaluated after 13 days. How it is done:
as §1

Experiment [8] deals with Echinochloa crus-galli (ECHCG). In words: Post-emergence Test, ECHCG. To be noted: sprayed after 8 days cultivation, 1000 g/ha, evaluated after 13 days. As for the experimental part:
as §1

The subject of experiment [9] is Setaria faberi (SETFA). In words: Post-emergence Test, SETFA. To be noted: sprayed after 8 days cultivation, 1000 g/ha, evaluated after 13 days. How it is done:
as §1

Experiment [10] has as its system ZEAMX. Briefly: Post-emergence Test, ZEAMX. To be noted: sprayed after 8 days cultivation, 1000 g/ha, evaluated after 13 days. As for the experimental part:
[The procedure below names another target; the source lists this target under the same test.] as §1

Experiment [11] has as its system ABUTH. Briefly: Post-emergence Test, ABUTH. The settings on record: sprayed after 8 days cultivation, 1000 g/ha, evaluated after 13 days. As for the experimental part: [The procedure below names another target; the source lists this target under the same test.] as §1
The test system of experiment [12] is ZEAMX. In words: Pre-emergence Test, ZEAMX. To be noted: 1000 g/ha, evaluated after 13 days.

As for `CCOC(=O)c1nn(-c2ccc(OC(F)(F)F)cc2)c2cccc(-c3cc(C(F)F)on3)c2c1=O` [Compound P12, ethyl 5-[5-(difluoromethyl)isoxazol-3-yl]-4-oxo-1-[4-(trifluoromethoxy)phenyl] cinnoline-3-carboxylate], the “percentage damage caused to the plant, AMARE” value in experiment [1] and in experiment [6] was 0 (0=0%) throughout. Moreover, the “percentage damage caused to the plant, IPOHE” value in [2] is listed as 0 (0=0%); in experiment [7] it was 2 (2=21-40%). Besides, the “percentage damage caused to the plant, ECHCG” value in experiment [3] and in [8] was 0 (0=0%) throughout. Moreover, the “percentage damage caused to the plant, SETFA” value is 0 (0=0%) in the experiment on Setaria faberi (SETFA) [4] and 2 (2=21-40%) with Setaria faberi (SETFA) [9]. Also, the “percentage damage caused to the plant, ABUTH” value in the experiment on ABUTH [5] is recorded as 0 (0=0%); in the experiment with ABUTH [11], 1 (1=10-20%). For the same compound, in the experiment with ZEAMX [10], the “percentage damage caused to the plant, ZEAMX” value is listed as 1 (1=10-20%).
In the case of `O=C(O)c1nn(-c2ccc(OC(F)(F)F)cc2)c2cccc(-c3cc(C(F)F)on3)c2c1=O` [Compound P13, 5-[5-(difluoromethyl)isoxazol-3-yl]-4-oxo-1-[4-(trifluoromethoxy)phenyl] cinnoline-3-carboxylic acid], the “percentage damage caused to the plant, AMARE” value in [1] was 0 (0=0%); in [6] it was 1 (1=10-20%). Further, the “percentage damage caused to the plant, IPOHE” value in experiment [2] is recorded as 0 (0=0%); in experiment [7], 2 (2=21-40%). The “percentage damage caused to the plant, ECHCG” value was 0 (0=0%) in [3] and 3 (3=41-60%) in [8]. Moreover, the “percentage damage caused to the plant, SETFA” value in the experiment with Setaria faberi (SETFA) [4] is given as 0 (0=0%); with Setaria faberi (SETFA) [9] it was 4 (4=61-80%). The “percentage damage caused to the plant, ZEAMX” value with ZEAMX [12] was 0 (0=0%); with ZEAMX [10] it was 3 (3=41-60%). Also, the “percentage damage caused to the plant, ABUTH” value with ABUTH [5] and in the experiment on ABUTH [11] was 0 (0=0%) throughout.
Take `CCOC(=O)c1nn(-c2ccc(OC(F)(F)F)cc2)c2cccc(/C(C)=N/O)c2c1=O` [Compound P14, ethyl 5-[(E)-N-hydroxy-C-methyl-carbonimidoyl]-4-oxo-1-[4-(trifluoromethoxy)phenyl] cinnoline-3-carboxylate]: the “percentage damage caused to the plant, AMARE” value in [1] is reported as 1 (1=10-20%); in experiment [6] it was 2 (2=21-40%). Besides, the “percentage damage caused to the plant, IPOHE” value was 0 (0=0%) in experiment [2] and 1 (1=10-20%) in [7]. In addition, the “percentage damage caused to the plant, ECHCG” value in experiment [3] and in experiment [8] was 4 (4=61-80%) in each case. Also, the “percentage damage caused to the plant, SETFA” value was 4 (4=61-80%) in the experiment with Setaria faberi (SETFA) [4] and 3 (3=41-60%) in the experiment on Setaria faberi (SETFA) [9]. The “percentage damage caused to the plant, ZEAMX” value with ZEAMX [12] is given as 2 (2=21-40%); in the experiment with ZEAMX [10], 4 (4=61-80%). Moreover, the figures for the “percentage damage caused to the plant, ABUTH” value with ABUTH [5] and in the experiment on ABUTH [11] were 1 (1=10-20%) and 3 (3=41-60%), respectively.
For the compound `C/C(=N\O)c1cccc2c1c(=O)c(C(=O)O)nn2-c1ccc(OC(F)(F)F)cc1` [Compound P15, 5-[(E)-N-hydroxy-C-methyl-carbonimidoyl]-4-oxo-1-[4-(trifluoromethoxy)phenyl] cinnoline-3-carboxylic acid], the “percentage damage caused to the plant, AMARE” value in experiment [1] is recorded as 2 (2=21-40%); in experiment [6] it was 1 (1=10-20%). In addition, the “percentage damage caused to the plant, IPOHE” value is listed as 0 (0=0%) in [2] and 3 (3=41-60%) in [7]. For the same compound, the “percentage damage caused to the plant, ECHCG” value in experiment [3] and in experiment [8] was 4 (4=61-80%) each time. Besides, the “percentage damage caused to the plant, SETFA” value is recorded as 5 (5=81-100%) in the experiment with Setaria faberi (SETFA) [4] and 3 (3=41-60%) in the experiment with Setaria faberi (SETFA) [9]. In addition, the “percentage damage caused to the plant, ZEAMX” value in the experiment on ZEAMX [12] and in the experiment on ZEAMX [10] was 3 (3=41-60%) each time. In addition, the “percentage damage caused to the plant, ABUTH” value in the experiment on ABUTH [5] was 2 (2=21-40%); in the experiment on ABUTH [11], 3 (3=41-60%).
`C=Cc1cccc2c1c(=O)c(C(=O)OCC)nn2-c1ccc(OC(F)(F)F)cc1` [Compound P16, ethyl 4-oxo-1-[4-(trifluoromethoxy)phenyl]-5-vinyl-cinnoline-3-carboxylate]: the “percentage damage caused to the plant, AMARE” value in experiment [1] and in experiment [6] was 2 (2=21-40%) in each case. Moreover, the “percentage damage caused to the plant, IPOHE” value in experiment [2] and in experiment [7] was 1 (1=10-20%) throughout. Further, the “percentage damage caused to the plant, ECHCG” value in experiment [3] was 2 (2=21-40%); in experiment [8], 3 (3=41-60%). Also, the “percentage damage caused to the plant, SETFA” value in the experiment with Setaria faberi (SETFA) [4] is 3 (3=41-60%); with Setaria faberi (SETFA) [9], 4 (4=61-80%). The figures for the “percentage damage caused to the plant, ZEAMX” value with ZEAMX [12] and with ZEAMX [10] were 1 (1=10-20%) and 2 (2=21-40%), respectively. Moreover, the “percentage damage caused to the plant, ABUTH” value in the experiment with ABUTH [5] was 2 (2=21-40%); in the experiment on ABUTH [11], 1 (1=10-20%).
As to `CCOC(=O)c1nn(-c2ccc(OC(F)(F)F)cc2)c2cccc([N+](=O)[O-])c2c1=O` [Compound P39, ethyl 5-nitro-4-oxo-1-[4-(trifluoromethoxy)phenyl] cinnoline-3-carboxylate], the “percentage damage caused to the plant, AMARE” value in experiment [1] and in experiment [6] was 0 (0=0%) each time. The “percentage damage caused to the plant, IPOHE” value in experiment [2] and in [7] was 0 (0=0%) throughout. Also, the “percentage damage caused to the plant, ECHCG” value is given as 2 (2=21-40%) in experiment [3] and 3 (3=41-60%) in [8]. In addition, the figures for the “percentage damage caused to the plant, SETFA” value in the experiment on Setaria faberi (SETFA) [4] and in the experiment with Setaria faberi (SETFA) [9] were 5 (5=81-100%) and 3 (3=41-60%), respectively. For the same compound, the “percentage damage caused to the plant, ZEAMX” value in the experiment on ZEAMX [12] and with ZEAMX [10] was 0 (0=0%) throughout. In addition, the “percentage damage caused to the plant, ABUTH” value in the experiment with ABUTH [5] is 1 (1=10-20%).
With `O=C(O)c1nn(-c2ccc(OC(F)(F)F)cc2)c2cccc([N+](=O)[O-])c2c1=O` [Compound P40, 5-nitro-4-oxo-1-[4-(trifluoromethoxy)phenyl] cinnoline-3-carboxylic acid], the entries for the “percentage damage caused to the plant, AMARE” value in experiment [1] and in experiment [6] were 2 (2=21-40%) and 1 (1=10-20%), respectively. Also, the “percentage damage caused to the plant, IPOHE” value in experiment [2] and in experiment [7] was 0 (0=0%) each time. Further, the “percentage damage caused to the plant, ECHCG” value in experiment [3] is 2 (2=21-40%); in [8], 3 (3=41-60%). Further, the “percentage damage caused to the plant, SETFA” value with Setaria faberi (SETFA) [4] and in the experiment on Setaria faberi (SETFA) [9] was 5 (5=81-100%) in each case. For the same compound, the “percentage damage caused to the plant, ZEAMX” value in the experiment on ZEAMX [12] is given as 0 (0=0%); in the experiment with ZEAMX [10] it was 1 (1=10-20%). In addition, the “percentage damage caused to the plant, ABUTH” value in the experiment with ABUTH [5] is on record as 3 (3=41-60%).
For `COc1ccc(-n2nc(C(=O)O)c(=O)c3c(C#N)cccc32)cc1OC` [Compound P41, 5-cyano-1-(3,4-dimethoxyphenyl)-4-oxo-cinnoline-3-carboxylic acid], the “percentage damage caused to the plant, AMARE” value in [1] and in experiment [6] was 0 (0=0%) in each case. In addition, the “percentage damage caused to the plant, IPOHE” value in [2] is recorded as 0 (0=0%); in experiment [7], 1 (1=10-20%). The “percentage damage caused to the plant, ECHCG” value in [3] is listed as 0 (0=0%). For the same compound, the “percentage damage caused to the plant, SETFA” value in the experiment on Setaria faberi (SETFA) [4] is on record as 0 (0=0%); in the experiment with Setaria faberi (SETFA) [9], 2 (2=21-40%). The “percentage damage caused to the plant, ZEAMX” value in the experiment with ZEAMX [12] and in the experiment on ZEAMX [10] was 0 (0=0%) in each case. Further, the “percentage damage caused to the plant, ABUTH” value in the experiment with ABUTH [5] was 0 (0=0%); with ABUTH [11] it was 1 (1=10-20%).
Take `CCOC(=O)c1nn(-c2ccc(OC)c(OC)c2)c2cccc(C#N)c2c1=O` [Compound P42, ethyl 5-cyano-1-(3,4-dimethoxyphenyl)-4-oxo-cinnoline-3-carboxylate]: the “percentage damage caused to the plant, AMARE” value in experiment [1] and in experiment [6] was 0 (0=0%) in each case. For the same compound, the “percentage damage caused to the plant, IPOHE” value in [2] and in [7] was 0 (0=0%) in each case. Further, the “percentage damage caused to the plant, ECHCG” value in [3] is recorded as 0 (0=0%). Besides, the “percentage damage caused to the plant, SETFA” value in the experiment with Setaria faberi (SETFA) [4] and in the experiment with Setaria faberi (SETFA) [9] was 0 (0=0%) each time. Also, the “percentage damage caused to the plant, ZEAMX” value in the experiment with ZEAMX [12] and in the experiment on ZEAMX [10] was 0 (0=0%) throughout. Moreover, the “percentage damage caused to the plant, ABUTH” value with ABUTH [5] and in the experiment on ABUTH [11] was 0 (0=0%) throughout.
